Target: PolQ ATPase enzyme (1-894) (Homo sapiens (Human), UniProt O75417)
Test: Polθ ATPase enzymatic assay (0.5 nM enzyme concentration), ADP-Glo
Format: biochemical
Conditions: average IC50; 0.5 nM PolQ ATPase enzyme (1-894)
Experimental: PolQ ATPase enzyme (1-894) at 0.5 nM is incubated with a 10-point concentration response of inhibitors for 15 min at rt in the following buffer: 50 mM Tris Cl pH 7.5, 10% glycerol, 5 mM DTT, 10 mM MgCl2, 0.1 mg/ml BSA. Following pre-incubation with inhibitors, DNA (Fork C) at 20 nM and ATP at 100 μM are added to start the reaction. Enzymatic reaction proceeds at rt for 180 min ATP consumption is measured using the ADP-Glo assay from Promega. Luminescence is read on the Envision and IC50 are determined using the variable slope 4-parameters equation.
Oligos are annealed by heating at 9500 for 5 min in the following buffer (10 mM Tris-HCl pH7.5, 50 mM NaCl, 1 mM EDTA) and cooled to rt. […]

PolQ ATPase enzyme (1-894), sequence (O75417 1-894): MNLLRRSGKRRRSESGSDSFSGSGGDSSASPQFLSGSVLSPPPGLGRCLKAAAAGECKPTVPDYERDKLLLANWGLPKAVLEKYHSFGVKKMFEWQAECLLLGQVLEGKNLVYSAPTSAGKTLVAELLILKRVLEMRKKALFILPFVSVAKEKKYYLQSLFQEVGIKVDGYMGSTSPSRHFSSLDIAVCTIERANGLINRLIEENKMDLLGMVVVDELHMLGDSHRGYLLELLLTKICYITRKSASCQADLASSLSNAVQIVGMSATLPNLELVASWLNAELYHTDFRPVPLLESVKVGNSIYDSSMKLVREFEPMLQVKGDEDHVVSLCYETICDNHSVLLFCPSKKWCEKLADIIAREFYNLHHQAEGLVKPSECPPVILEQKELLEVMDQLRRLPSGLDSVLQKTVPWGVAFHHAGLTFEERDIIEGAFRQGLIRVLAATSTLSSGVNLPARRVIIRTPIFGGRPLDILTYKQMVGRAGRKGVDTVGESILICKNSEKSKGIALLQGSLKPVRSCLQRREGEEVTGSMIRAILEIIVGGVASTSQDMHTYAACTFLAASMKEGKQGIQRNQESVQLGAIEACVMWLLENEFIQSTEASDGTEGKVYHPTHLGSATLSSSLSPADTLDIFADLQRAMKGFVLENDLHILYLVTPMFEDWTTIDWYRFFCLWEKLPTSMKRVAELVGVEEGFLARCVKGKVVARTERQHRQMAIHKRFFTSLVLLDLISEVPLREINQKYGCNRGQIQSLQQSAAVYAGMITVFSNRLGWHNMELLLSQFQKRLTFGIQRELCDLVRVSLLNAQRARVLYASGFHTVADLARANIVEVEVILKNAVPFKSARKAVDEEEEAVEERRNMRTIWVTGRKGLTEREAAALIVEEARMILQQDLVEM

Row | Structure (SMILES) | IC50
1 | COc1cnc(C(F)F)cc1-c1cc(N2CC3(CCC2=O)CC3)ncc1C(=O)Nc1nnc(C#CC2CC2)s1 [Compound 426] | 0.39 nM
2 | COc1cnc(C(F)F)cc1-c1cc(C#Cc2cn[nH]c2)ncc1C(=O)Nc1nnc(C#CC2CC2)s1 [Compound 196] | < 0.25 nM
3 | COc1cnc(C(F)F)cc1-c1cc(N2CC3(C2)CC(C)(O)C3)ncc1C(=O)Nc1nnc(C#CC2CC2)s1 [Compound 130, N-(5-(cyclopropylethynyl)-1,3,4-thiadiazol-2-yl)-2′-(difluoromethyl)-6-(6-hydroxy-6-methyl-2-azaspiro[3.3]heptan-2-yl)-5′-methoxy-[4 4′-bipyridine]-3-carboxamide] | 2.1 nM
4 | O=C(Nc1nnc(C#CC2CC2)s1)c1ccncc1-c1cc(Cl)ncc1Cl [Compound 44] | 0.31 nM
5 | COc1cnc(Cl)cc1-c1cc(N2CCC(O)C2=O)ccc1C(=O)Nc1nnc(C#CC2CC2)s1 (stereo not shown) [Compound 277] | 3.2 nM
6 | CNC(=O)Cn1cc(-c2cc(C(F)(F)F)ccc2OC)c(C(=O)Nc2nnc(C#Cc3cc(C)[nH]n3)s2)cc1=O [Compound 82] | < 0.25 nM
7 | COc1cnc(C(F)F)cc1-c1cc(C#CC2(O)CCS(=O)(=O)CC2)ccc1C(=O)Nc1ncc(C#CC2CC2)s1 [Compound 238] | 3.6 nM
8 | COc1cnc(C(F)F)cc1-c1cc(CC(=O)N(C)C)ncc1C(=O)Nc1nc(C)c(C#CC2CC2)s1 [Compound 179] | 1.6 nM
9 | COc1cnc(C(F)F)cc1-c1cc(N(C)Cc2cnn(C)c2)ccc1C(=O)Nc1nnc(C#CC2CC2)s1 [Compound 136] | 8.5 nM
10 | COc1cnc(Cl)cc1-c1cn2c(C#N)cnc2cc1C(=O)Nc1nnc(C#CC2CC2)s1 [Compound 341] | 3.2 nM
11 | COc1cnc(C(F)F)cc1-c1cnccc1C(=O)Nc1nnc(C#CC2CC2)s1 [Compound 31, N-(5-(cyclopropylethynyl)-1,3,4-thiadiazol-2-yl)-2′-(difluoromethyl)-5′-methoxy-[3,4′-bipyridine]-4-carboxamide] | 0.63 nM
12 | COc1ccc(C(F)(F)F)cc1-c1cnccc1C(=O)Nc1nnc(C#CC2CC2(C)C)s1 (stereo not shown) [Compound 306] | 0.56 nM
13 | CCc1nn(C)cc1-c1cc(-c2ccn(C)n2)ncc1C(=O)Nc1nnc(C#CC2CC2)s1 [Compound 433] | 6.2 nM
14 | COc1cnc(C(F)F)cc1-c1cc(N2CC[C@@H]3C[C@@H]3C2=O)ncc1C(=O)Nc1nnc(C#CC2CC2)s1 [Compound 384] | < 0.25 nM
15 | COc1cnc(C(F)F)cc1-c1cc(N2CCC3CC3C2=O)ncc1C(=O)Nc1nnc(C#CC2CC2)s1 (stereo not shown) [Compound 142] | < 0.25 nM
16 | COc1cnc(C(F)F)cc1-c1cc(N2CCN(C)CC2=O)ccc1C(=O)Nc1nnc(C#CC2CC2)s1 [Compound 109, N-(5-(cyclopropylethynyl)-1,3,4-thiadiazol-2-yl)-2-(2-(difluoromethyl)-5-methoxypyridin-4-yl)-4-(4-methyl-2-oxopiperazin-1-yl)benzamide] | < 0.25 nM
17 | COc1cnc(Cl)nc1-c1cnccc1C(=O)Nc1nnc(C#CC2CC2)s1 [Compound 68] | 1.6 nM
18 | COc1cnc(C(F)F)cc1-c1cc(C#CCN2CCS(=O)(=O)CC2)ccc1C(=O)Nc1nnc(C#CC2CC2)s1 [Compound 242] | 0.35 nM
19 | COc1cnc(C(F)F)cc1-c1cc(-n2cccc(C)c2=O)ncc1C(=O)Nc1nnc(C#CC2CC2)s1 [Compound 437] | < 0.25 nM
20 | COc1ccc(F)cc1-c1cnccc1C(=O)Nc1nnc(C#Cc2cc(C#N)[nH]n2)s1 [Compound 101] | < 0.25 nM

Row | Structure (SMILES) | IC50
21 | COc1cnc(C(F)F)cc1-c1cc(-n2nccc(C)c2=O)ncc1C(=O)Nc1nnc(C#CC2CC2)s1 [Compound 453] | < 0.25 nM
22 | COc1cnc(C(F)F)cc1-c1cc(N2CC3CC3CC2=O)ncc1C(=O)Nc1nnc(C#CC2CC2)s1 (stereo not shown) [Compound 388] | < 0.25 nM
23 | COc1cnc(C(F)F)cc1-c1cc(-c2ccn(C)n2)ncc1C(=O)Nc1nnc(C#Cc2cc(C)[nH]n2)s1 [Compound 161] | < 0.25 nM
24 | COc1ccc(C(F)(F)F)cc1-c1cn(C)c(=O)cc1C(=O)Nc1nnc(C#CC2CC23CC3)s1 (stereo not shown) [Compound 60] | 1.1 nM
25 | COc1cnc(Cl)cc1-c1cn(CC(=O)N(C)C)c(=O)cc1C(=O)Nc1nnc(C#CC2CC2)s1 [Compound 99] | 0.36 nM
26 | CNC(=O)Cn1cc(-c2cc(Cl)ncc2OC(F)F)c(C(=O)Nc2nnc(C#CC3CC3)s2)cc1=O [Compound 77] | < 0.25 nM
27 | COc1cnc(C(F)F)cc1-c1cc(OC[C@H]2CCCO2)ncc1C(=O)Nc1nnc(C#CC2CC2)s1 [Compound 186] | 0.79 nM
28 | Cn1cc(-c2cc(Cl)ncc2OC(F)F)c(C(=O)Nc2nnc(C#CC3CC34CC4)s2)cc1=O (stereo not shown) [Compound 320] | < 0.25 nM
29 | COc1cnc(C(F)F)cc1-c1cc(-c2cnccn2)ncc1C(=O)Nc1nnc(C#CC2CC2)s1 [Compound 172] | 1.5 nM
30 | COc1cnc(C(F)F)cc1-c1cc(C2C[C@@H]2C(=O)N(C)C)ncc1C(=O)Nc1nnc(C#CC2CC2)s1 (stereo partly shown) [Compound 361] | 1.9 nM
31 | COc1ccc(C(F)(F)F)cc1-c1cc(C#CC(C)O)ncc1C(=O)Nc1nnc(C#CC2CC2)s1 (stereo not shown) [Compound 248] | < 0.25 nM
32 | COc1cnc(C(F)F)cc1-c1cc(C#CC2CCOCC2)ncc1C(=O)Nc1nnc(C#CC2CC2)s1 [Compound 268, N-(5-(cyclopropylethynyl)-1,3,4-thiadiazol-2-yl)-2′-(difluoromethyl)-5′-methoxy-6-((tetrahydro-2H-pyran-4-yl)ethynyl)-[4,4′-bipyridine]-3-carboxamide] | 0.28 nM
33 | COc1cnc(C(F)F)cc1-c1cc(N2CC[C@H]3C[C@H]3C2=O)ncc1C(=O)Nc1nnc(C#CC2CC2)s1 [Compound 383] | < 0.25 nM
34 | COc1cnc(C(F)F)cc1-c1cc(-c2cnn(C3CCN(C)CC3)c2)ncc1C(=O)Nc1nnc(C#CC2CC2)s1 [Compound 399] | 1.5 nM
35 | COc1cnc(C(F)F)cc1-c1cc(N2CCn3nccc3C2=O)ncc1C(=O)Nc1nnc(C#CC2CC2)s1 [Compound 133] | < 0.25 nM
36 | COc1cnc(Cl)cc1-c1cncc(F)c1C(=O)Nc1nnc(C#CC2CC2)s1 [Compound 327] | 4.1 nM
37 | COc1cnc(C(F)F)cc1-c1cc(C#N)ccc1C(=O)Nc1nnc(C#CC2CC2)s1 [Compound 251] | 0.45 nM
38 | COc1cnc(C(F)F)cc1-c1cc(CC#N)ncc1C(=O)Nc1ncc(C#CC2CC2)s1 [Compound 198] | 0.53 nM
39 | COc1cnc(C(F)F)cc1-c1cc(OCc2ccn(C)n2)ncc1C(=O)Nc1nnc(C#CC2CC2)s1 [Compound 183] | 0.49 nM
40 | COc1cnc(C(F)F)cc1-c1cc(OCCOC(F)F)ncc1C(=O)Nc1nnc(C#CC2CC2)s1 [Compound 181] | 0.75 nM

Row | Structure (SMILES) | IC50
41 | COc1ccc(C(F)F)cc1-c1cn(C)c(=O)cc1C(=O)Nc1nnc(C#CC2CC23CC3)s1 (stereo not shown) [Compound 42] | 1.8 nM
42 | COc1cnc(C(F)F)cc1-c1cc(N2CCCCCC2=O)ncc1C(=O)Nc1nnc(C#CC2CC2)s1 [Compound 394] | < 0.25 nM
43 | COc1ccc(C(F)(F)F)cc1-c1cc(-c2cnn(C)c2)ncc1C(=O)Nc1nnc(C#CC2CC2)s1 [Compound 296] | 1.6 nM
44 | COc1cnc(C(F)F)cc1-c1cc(C#CC2(C(=O)N(C)C)CC2)ncc1C(=O)Nc1ncc(C#CC2CC2)s1 [Compound 210] | < 0.25 nM
45 | COc1ccc(C(F)(F)F)cc1-c1cn(CC(N)=O)c(=O)cc1C(=O)Nc1nnc(C#CC2CC2)s1 [Compound 95] | < 0.25 nM
46 | COc1cnc(C(F)F)cc1-c1cc(-c2ccn(CS(C)(=O)=O)n2)ccc1C(=O)Nc1nnc(C#CC2CC2)s1 [Compound 124, N-(5-(cyclopropylethynyl)-1,3,4-thiadiazol-2-yl)-2-(2-(difluoromethyl)-5-methoxypyridin-4-yl)-4-(1-((methylsulfonyl)methyl)-1H-pyrazol-3-yl)benzamide] | < 0.25 nM
47 | COc1cnc(C(F)F)cc1-c1cc(-n2ncc(OC)c(Cl)c2=O)ncc1C(=O)Nc1nnc(C#CC2CC2)s1 [Compound 452] | < 0.25 nM
48 | COc1cnc(C(F)F)cc1-c1cc(OC[C@@H]2CCC(=O)N2C)ncc1C(=O)Nc1nnc(C#CC2CC2)s1 [Compound 147] | 0.31 nM
49 | COc1ccc(C(F)(F)F)cc1-c1cc(N2CCN(C)C2=O)ncc1C(=O)Nc1nnc(C#CC2CC2)s1 [Compound 281] | 20 nM
50 | COc1cnc(C(F)F)cc1-c1cc(N2CCC3CCC3C2=O)ncc1C(=O)Nc1nnc(C#CC2CC2)s1 (stereo not shown) [Compound 443] | < 0.25 nM
51 | COc1cnc(C(F)F)cc1-c1cc(N2CCC(C(C)(C)C)CC2=O)ncc1C(=O)Nc1nnc(C#CC2CC2)s1 (stereo not shown) [Compound 444] | < 0.25 nM
52 | COc1cnc(C(F)F)cc1-c1cc(C#CCN2CCNC2=O)ccc1C(=O)Nc1nnc(C#CC2CC2)s1 [Compound 197] | < 0.25 nM
53 | COc1cnc(Cl)cc1-c1cc(Oc2nccs2)ccc1C(=O)Nc1nnc(C#CC2CC2)s1 [Compound 302] | 0.35 nM
54 | COc1cnc(C(F)F)cc1-c1cc(-n2cccc(F)c2=O)ncc1C(=O)Nc1nnc(C#CC2CC2)s1 [Compound 449] | < 0.25 nM
55 | COc1cnc(C(F)F)cc1-c1cc(C#CC(C)(C)C#N)ncc1C(=O)Nc1nnc(C#CC2CC2)s1 [Compound 184] | 0.45 nM
56 | O=C(Nc1nnc(C#CC2CC23CC3)s1)c1cc2ncnn2cc1-c1cc(Cl)ncc1OC(F)F (stereo not shown) [Compound 47] | 0.62 nM
57 | COc1cnc(Cl)cc1-c1cnccc1C(=O)Nc1nnc(C2C[C@H]2c2ccc(C#N)nc2)s1 (stereo partly shown) [Compound 318] | 4.8 nM
58 | CNC(=O)Cc1ccc(C(=O)Nc2nnc(C#CC3CC3)s2)c(-c2cc(C(F)F)ncc2OC)c1 [Compound 230] | < 0.25 nM

From patent publication US20250026748A1, “N-(5-SUBSTITUTED-[(1,3,4-THIADIAZOLYL) OR (THIAZOLYL)])(SUBSTITUTED)CARBOXAMIDE COMPOUNDS AND USE THEREOF FOR INHIBITING HUMAN POLYMERASE THETA” (Repare Therapeutics Inc., priority 2021, published 2025)
